Key:
uracil reductase [1] = test: Inactivation of uracil reductase in vivo (plasma uracil and thymine), dogs
Description: (§1) The maximum effect occurred at about 0.1 mg/kg p.o. in rats, at 0.5 to 1 mg/kg s.c. in mice, and at approximately 1 mg/kg intravenously (i.v.) in dogs and probably represents total inactivation of uracil reductase. These doses elevated mouse, dog, and rat plasma uracil from about 3 uM to about 50-60 uM. […] The ED50 equals 0.01 mg/kg.

uracil reductase [2] = target: T1, uracil reductase (Mus musculus, UniProt Q8CHR6); test: Inactivation of uracil reductase in vivo (plasma uracil and thymine), mice
T1 construct: from tissue; host or cells: whole animal (mouse), endogenous enzyme
T1 sequence (Q8CHR6 1-1025): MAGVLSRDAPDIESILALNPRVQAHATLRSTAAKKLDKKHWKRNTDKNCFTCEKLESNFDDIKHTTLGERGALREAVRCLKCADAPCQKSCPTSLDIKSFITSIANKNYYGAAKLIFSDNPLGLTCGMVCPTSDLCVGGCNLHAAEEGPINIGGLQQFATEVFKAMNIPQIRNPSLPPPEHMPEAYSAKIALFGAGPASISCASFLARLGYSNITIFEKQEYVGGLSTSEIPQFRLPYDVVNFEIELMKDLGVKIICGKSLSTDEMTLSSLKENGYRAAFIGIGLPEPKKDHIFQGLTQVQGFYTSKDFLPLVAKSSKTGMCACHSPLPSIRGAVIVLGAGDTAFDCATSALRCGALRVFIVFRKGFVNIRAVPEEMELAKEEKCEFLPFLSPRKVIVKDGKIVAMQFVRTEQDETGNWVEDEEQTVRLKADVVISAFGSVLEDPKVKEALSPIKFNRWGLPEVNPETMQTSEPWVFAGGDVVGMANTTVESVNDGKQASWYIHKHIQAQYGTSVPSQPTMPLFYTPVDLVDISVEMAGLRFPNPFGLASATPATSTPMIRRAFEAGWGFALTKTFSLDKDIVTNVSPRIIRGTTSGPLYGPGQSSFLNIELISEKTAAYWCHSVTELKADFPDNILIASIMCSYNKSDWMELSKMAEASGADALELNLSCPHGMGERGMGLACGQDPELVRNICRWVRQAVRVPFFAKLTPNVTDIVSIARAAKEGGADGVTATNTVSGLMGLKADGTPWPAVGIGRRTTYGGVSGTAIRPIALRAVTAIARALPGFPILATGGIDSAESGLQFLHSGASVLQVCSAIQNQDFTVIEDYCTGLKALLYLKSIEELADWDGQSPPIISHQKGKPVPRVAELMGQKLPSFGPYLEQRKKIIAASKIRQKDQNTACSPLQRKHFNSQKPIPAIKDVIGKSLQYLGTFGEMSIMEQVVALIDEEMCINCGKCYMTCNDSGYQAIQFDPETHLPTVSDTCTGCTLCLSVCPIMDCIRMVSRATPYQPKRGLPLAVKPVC
Description: as §1

dose at which the maximum effect on plasma uracil and thymine occurred (uracil reductase [2]; mice, s.c.): 0.5 to 1 mg/kg
plasma uracil (uracil reductase [2]; mouse, at dose of maximum effect, elevated from about 3 uM): 50 to 60 µM
Structure (SMILES): C#Cc1c[nH]c(=O)[nH]c1=O [5-ethynyluracil]
plasma uracil (uracil reductase [1]; dog, at dose of maximum effect, elevated from about 3 uM): 50 to 60 µM
dose at which the maximum effect on plasma uracil and thymine occurred (uracil reductase [1]; dogs, intravenously (i.v.)): approximately 1 mg/kg
